# Experimental data from patent publication US9868763B2, “Modulators of protease activated receptors” (The University of Queensland, priority 2011, dated 2018).
# Entries after “also recorded” stand apart in the source; their conditions may differ.
# Columns and labels:
# [1] = tested on: TNBS-induced chronic colitis; assay: TNBS-induced chronic colitis model; assay type: in vivo, rat; conditions: sulfasalazine 100 mg/kg/day p.o.
# Protocol: On day 0, rats were weighed, given respective treatments of either sulfasalazine (100 mg/kg in olive oil p.o.), compound 52 (10 mg/kg in olive oil), or vehicle (500 l olive oil p.o.), and fasted for 24 h with water supplied ad libitum. The next day (day 1), rats were weighed, dosed with respective compound, and anesthetized with isofluorane. A polyethylene catheter was inserted intrarectally (8 cm). Control and drug-treated animals received an intracolonic dose of TNBS (80 mg/kg in saline and 250 l, 50% ethanol in water) (Fiorucci at al., 2001). Sham animals received vehicle only, with TNBS replaced by equivolume water. Rats were maintained in an inclined position (40°) for 30 min, then allowed to recover with food and water supplied. Rats were dosed daily with the respective compound, weighed, and scored for general health and disease progression. All rats were sacrificed on day 8 of experimentation unless they were sacrificed earlier. Disease progression and post-mortem colonic histopathology was scored by the following methods. PAR2 and tryptase co-localization were investigated by using immunohistochemistry.
# DAI for both acute and chronic models was assessed and scored by an expert blinded to treatments. Scores incorporated mobility, gastrointestinal pathology, discomfort, and generalized sickness behaviour criteria (each scored 0-3). Any animal that reached stage 3 in any criteria was euthanized by CO2 inhalation and recorded as a disease-related mortality. Scores were summed and expressed as total disease score (maximum 12). DAI was measured at endpoint only (10 h) in the acute study and daily in the chronic TNBS study.
# Colons were dissected post-mortem and given a macroscopic disease score based on that described previously (Bobin-Dubigeon et al., 2001) with some minor alterations (maximal score 14). The entire colon length was removed between the ileocolic and colorectal junction. Length and maximal distension width were measured. Sections of affected colon were taken for biochemical analysis, histology, and wet/dry weight.
# [2] = tested on: collagen-induced arthritis; assay: Collagen-induced arthritis; assay type: in vivo, Wistar rat
# Protocol: Protocols were based on those described (Lin H S et al., Br J Pharmacol 2007, 150(7):862-72; Nishikawa M et al., Arthritis Rheum 2003, 48(9):2670-81). Female Wistar rats (200-250 g, n′ 14) were immunised on Day 0 with Bovine nasal collagen (200 μg, 50:50 0.05 M acetic acid and Freund's incomplete adjuvant, s.c. tail base). Sham animals received vehicle only (no collagen; 50:50 0.05 M acetic acid and Freund's incomplete adjuvant, s.c. tail base). Boosters of the same dose were given on Day 7. Daily oral dosage of PAR-2 antagonist 52 (10 mg/kg in olive oil, 500 μL, p.o. weight adjusted) or olive oil vehicle (arthritic control, and sham) began on Day 7. Paw thickness and width (as above), body weight, disease activity score and mechanical nociceptive thresholds were measured every second day from Day 10-28.
# Disease Activity Index (DAI) and mechanical hyperalgesia were assessed and qualitatively scored 0 to 4+. The DAI is based on multiple characteristic disease pathologies, incorporating changes in mobility, inflammation and discomfort/pain (maximum total score of 18). Plantar mechanical nociceptive thresholds were measured using Semmes Weinstein Von Frey Anaesthesiometers (Touch Test Sensory Evaluators, Stoelting, Ill., USA).
# Day 28 all rats were euthanised and hind paws fixed in 4% paraformaldehyde, decalcified and embedded in paraffin wax and cut at […]. Sections were stained with H&E for general tissue architecture, with Masson's Trichrome for collagen loss or with alcian blue/safranin-O for mast cells (42). Tissue macrophages were labeled using ED1 monoclonal antibody (for immature rat macrophage/monocytes, Serotec) using standard IHC techniques. Microscopic analysis and cell counts were made from multiple (>6) images/paw with aid of ImageJ 1.42q software.
# MIN6 beta cells = assay: Glucose-stimulated insulin secretion (GSIS); assay type: cell-based, mouse; conditions: 52 as pre-treatment before 2f-LIGRLO-NH2
# Protocol: Rat pancreas and mouse MIN6 beta cells were cultured in DMEM (25 mM glucose) supplemented with 15% fetal calf serum, 10 U/mL penicillin, 10 U/mL streptomycin, 2 mM L-glutamine and […] 2-mercaptoethanol. MIN6 beta cells were passaged and harvested using non-enzymatic cell dissociation solution (Sigma-Aldrich). Glucose-stimulated insulin secretion (GSIS) was performed as described next. MIN6 beta cells were seeded at 0.8×106 mL in a 96-well plate and cultured for 48 h. Cells were washed twice with glucose-free Krebs buffer (NaCl 119 mM, KCl 4.74 mM, CaCl2 2.54 mM, MgCl2 1.19 mM, KH2PO4 1.19 mM, NaHCO3 25 mM, HEPES (pH 7.4) 10 mM and 0.05% BSA). Cells were pre-treated with compound 52 for 30 min with Krebs buffer supplemented with 2.5 mM glucose. After incubation, cells were washed twice with glucose-free Krebs buffer. Glucose (2.5 mM and 25 mM) and compounds were added at specified concentration and incubated for 1 h. Supernatants were collected and insulin concentrations were determined by ELISA (Abeam).
# β-tryptase = biological target: T1, β-tryptase (Homo sapiens, UniProt Q15661); assay: Tryptase activity assay; assay type: biochemical; conditions: 20 μM; substrate tosyl-Gly-Pro-Arg-pNA
# T1 construct: purchased Promega
# Protocol: β-tryptase (10 ng/μL, 100 μL) was incubated±PAR2 antagonist 52 (20 μM) for 15 min, to which substrate tosyl-Gly-Pro-Arg-pNA (250 μM) was added. Absorbance was measured as optical density at 405 nm (FLUOstar Optima, BMG labtech, Aust.) every 41 s for 1 h.
# [3] = alcian blue/safranin-O staining
# T1 sequence (Q15661 31-275): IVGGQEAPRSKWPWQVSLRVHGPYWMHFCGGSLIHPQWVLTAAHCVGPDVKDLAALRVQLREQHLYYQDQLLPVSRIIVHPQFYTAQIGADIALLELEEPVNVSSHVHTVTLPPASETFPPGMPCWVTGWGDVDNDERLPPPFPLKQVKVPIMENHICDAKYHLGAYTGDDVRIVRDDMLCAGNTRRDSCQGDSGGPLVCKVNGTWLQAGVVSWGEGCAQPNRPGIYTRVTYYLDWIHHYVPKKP
structure (smiles),measurement,setting,value
CC[C@H](C)[C@@H](NC(=O)[C@H](CC1CCCCC1)NC(=O)c1ccno1)C(=O)N1CCC2(C=Cc3ccccc32)CC1 [Compound 52],"chronic colitis: mortality and pathology (colon obstruction, ulceration, wall thickness, myeloperoxidase release)",[1]; 52 10 mg/kg/day p.o.,ameliorated; also recorded: more effectively than the clinically used drug sulfasalazine
same,TNBS-mediated mortality,[1]; 52 10 mg/kg/day,8.3%
same,DAI compared with TNBS-controls,"[1]; from day 2 onward, 52 10 mg/kg/day",marked improvements in DAI; also recorded: almost complete recovery
same,collagen-induced rat arthritis,[2]; 10 mg/kg/day p.o.,attenuated collagen-induced rat arthritis
same,lowered mechanical nociceptive threshold (mechanical hyperalgesia),"[2]; 10 mg/kg/day p.o., Day 28",prevented the mechanical hyperalgaesia; also recorded: removed
same,maximal hind paw swelling,"[2]; 10 mg/kg/day p.o., Day 28, change from baseline",25±9%
same,maximal DAI (disease activity index),"[2]; 10 mg/kg/day p.o., Day 28, maximum total score 18",1.6±0.9
same,animals affected by arthritic signs,"[2]; 10 mg/kg/day p.o., by Day 28",60%
same,degranulated mast cells of all mast cells,[2]; [3],less than 5%
same,inactive mast cells of all mast cells,[2]; [3],~80%
same,collagen loss (Masson's Trichrome),[2]; compared to CIA-controls,significantly reduced collagen loss
same,"histopathological changes (H&E, tibia-talus joints)",[2]; daily administration,almost completely prevented
same,arthritic-like up regulation of ED1-macrophages,"[2]; rat, in vivo",prevented
same,glucose-stimulated insulin secretion,MIN6 beta cells,normalised insulin secretion
same,inhibition of proteolytic activity of β-tryptase,β-tryptase,did not inhibit; also recorded: not inhibited
